# Data taken from PMC5294771, “Antidiabetic effects of Brucea javanica seeds in type 2 diabetic rats” (BMC Complementary and Alternative Medicine, 2017).
# Read-outs that look alike come from different tables or passages of the source. Marks after values point to notes of the source that are not given here.
# Columns and labels:
# [1] = biological target: T1, glycogen phosphorylase α (GP-α) (Oryctolagus cuniculus, UniProt P00489); assay: GP-α inhibition assay; assay type: biochemical
# T1 sequence (P00489 2-843 limits assumed): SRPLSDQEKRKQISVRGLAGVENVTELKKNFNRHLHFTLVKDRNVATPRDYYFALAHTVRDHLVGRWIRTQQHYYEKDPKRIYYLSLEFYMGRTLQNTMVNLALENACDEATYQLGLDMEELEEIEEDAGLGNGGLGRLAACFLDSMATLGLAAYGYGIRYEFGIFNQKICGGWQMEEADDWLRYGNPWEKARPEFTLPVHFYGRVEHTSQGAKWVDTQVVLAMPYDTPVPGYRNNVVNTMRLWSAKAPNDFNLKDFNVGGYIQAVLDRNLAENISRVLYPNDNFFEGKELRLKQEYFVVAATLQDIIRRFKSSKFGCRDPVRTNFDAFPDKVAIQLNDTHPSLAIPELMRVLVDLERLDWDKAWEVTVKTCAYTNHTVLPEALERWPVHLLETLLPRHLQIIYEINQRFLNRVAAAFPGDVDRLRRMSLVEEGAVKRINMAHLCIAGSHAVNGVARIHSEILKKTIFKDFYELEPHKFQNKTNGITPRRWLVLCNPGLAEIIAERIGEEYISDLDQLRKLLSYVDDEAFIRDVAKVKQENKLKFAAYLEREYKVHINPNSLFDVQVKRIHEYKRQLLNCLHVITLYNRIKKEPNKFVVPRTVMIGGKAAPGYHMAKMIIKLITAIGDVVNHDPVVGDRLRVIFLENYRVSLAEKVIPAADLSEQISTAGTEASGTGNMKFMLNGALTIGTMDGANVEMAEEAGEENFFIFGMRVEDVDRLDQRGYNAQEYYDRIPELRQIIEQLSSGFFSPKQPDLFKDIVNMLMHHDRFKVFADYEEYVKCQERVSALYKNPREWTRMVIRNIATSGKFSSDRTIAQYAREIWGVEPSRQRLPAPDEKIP
# [2] = biological target: α-glucosidase (Saccharomyces cerevisiae, UniProt P53341); assay: α-glucosidase inhibition assay (pNPG); assay type: biochemical
# Procedure: The fractions from B. javanica seeds were evaluated as GP-α inhibitors and were further tested for their α-glucosidase inhibitory activity as described previously. Briefly, 50 μL of samples or standard were mixed with 100 μL of α-glucosidase (0.1 U/mL) in phosphate buffer (0.1 M, pH 6.9) and incubated at 37 °C for 10 min. The reactions were initiated by addition of p-Nitrophenyl α-D-Glucoside (p-NPG, 50 μL) in phosphate buffer (0.1 M, pH 6.9) and incubated again at 37 °C for 30 min. The reactions were terminated using NaCO3 (1 M, 50 μL). […] Phosphate buffer (50 μL) was used as control. Blank readings (without substrate) were subtracted from specific sample wells and the percentage of α-Glucosidase inhibition (αGI) was calculated as following formula: αGI (%) = [(Acontrol – Asample)/Acontrol] × 100 [22].
# α-glucosidase inhibition activity of isolated compounds were determined according to the method described in section 2.3 and GP-α inhibition activity was measured according to our previously reported method.
# [3] = test system: nondiabetic mice; details: 1 mg/kg b.w., 0-8 h screening; cited from earlier work
# [4] = test system: STZ-induced diabetic rats; details: 1 mg/kg b.w., 0-8 h screening; cited from earlier work
# [5] = test system: NA-STZ induced type 2 diabetic (T2D) rats; assay: Oral glucose tolerance test (OGTT) in T2D rats; assay type: in vivo, Sprague Dawley (SD) rats; details: 10 mg/kg
# Procedure: On the 25th day of treatment, the OGTT was carried out according to the previously reported method. All animals were fasted overnight (16 h) before commencing the experiments. Group I (non-diabetic control) and Group II (diabetic control) weretreated with distilled water, Group III and Group IV were given EAF (25 and 50 mg/kg b.w), and Group V was given glibenclamide (10 mg/kg b.w.) using oral gavage, respectively. After 30 min, α-D-glucose (2 g/kg b.w.) was administered orally into all groups of rats. Blood samples were collected from the tail vein at 0 (immediately after glucose load), 30, 60, 90, and 120 min, and blood glucose levels were determined by glucose oxidase method using a commercial glucose meter (Roche, USA). […] AUCglucose=C1+C2/2×t2−t1
# Where, C1 and C2 are concentrations of glucose at different time points; t1 and t2 are different tested time points.
# [6] = test system: NA-STZ induced type 2 diabetic (T2D) rats; assay: Serum cytokine levels (ELISA) in T2D rats; assay type: in vivo, Sprague Dawley (SD) rats; details: 10 mg/kg b.w.
# Procedure: (§1) At the end of study period, rats were fasted overnight, anesthetized, and the blood sample was collected by cardiac puncture. At the end, the rats were sacrificed by cervical dislocation. The blood sample was centrifuged 2000 x g for 15 minute at 4 °C, serum was collected and stored at −80 °C until analyses. The liver was carefully removed, washed in ice-cold phosphate buffered saline (PBS, pH 7.4) to remove the blood. A piece of liver sample was rinsed in liquid nitrogen, stored at −80 °C for glycogen assay.
# The quantification of cytokine in the serum was assessed by enzyme-linked immunosorbent assay (ELISA) using commercial kits for rat TNF-α, rat IL-6, and rat IL-1β (eBioscience, San Diego, CA USA) according to the manufacturer’s instructions.
# [7] = test system: NA-STZ induced type 2 diabetic (T2D) rats; assay: Serum MDA and GSH levels in T2D rats; assay type: in vivo, Sprague Dawley (SD) rats; details: 10 mg/kg
# Procedure: as §1
# The malondialdehyde (MDA), a byproduct of lipid peroxidation, and glutathione (GSH), a marker of antioxidant defense, were quantified by commercial kit (Cayman chemical company, Ann Arbor, MI, USA) according to the manufacturer’s instructions.
# [8] = test system: NA-STZ induced type 2 diabetic (T2D) rats; assay: Serum insulin levels and HOMA-IR in T2D rats; assay type: in vivo, Sprague Dawley (SD) rats; details: 10 mg/kg, 4 weeks, not significant
# Procedure: as §1
# The serum insulin levels were quantified by using rat insulin ELISA kit (Mercodia AB, Uppsala, Sweden) according to the manufacturer’s instructions. Insulin resistance (IR) was calculated according to the homeostasis model assessment by using the following equation [24] HOMA−IR=glucosemmol/L×insulinμU/mL/22.5
# [9] = test system: NA-STZ induced type 2 diabetic (T2D) rats; assay: Liver glycogen contents in T2D rats; assay type: in vivo, Sprague Dawley (SD) rats; details: 10 mg/kg b.w.
# Procedure: as §1
# The glycogen contents in the liver were measured using a glycogen assay kit (Ann Arbor, MI, USA) according to the manufacturer’s instructions.
# [10] = test system: NA-STZ induced type 2 diabetic (T2D) rats; assay: Fasting blood glucose levels in NA-STZ T2D rats, 28-day oral treatment; assay type: in vivo, Sprague Dawley (SD) rats; details: for Fasting blood glucose level: 10 mg/kg/day b.w. oral
# Procedure: The experimental rats were fasted overnight (16 h) and diabetes was induced by single intraperitoneal (i.p) injection of STZ (60 mg/kg b.w.) freshly prepared in 0.1 M citrate buffer (pH 4.5) 15 min after i.p injection of NA (100 mg/kg b.w.) dissolved in normal saline. Diabetes was confirmed 3 weeks after NA-STZ induction by measuring tail vein blood glucose levels using glucose meter (Accu-check Performa, Rochi diagnostic, USA). The rats having blood glucose levels higher than 11 mmol/L were considered as diabetic and selected for study.
# The experimental rats were divided into 5 groups (n = 6; 3 M/3 F) as following. Group I: non-diabetic control (NDC) and Group II: diabetic control (DC) consisted of rats were allowed to free access of water; Group III and IV were treated orally with EAF (25 and 50 mg/kg/day b.w.) diluted in distilled water, Group V was treated orally with Glibenclamide (10 mg/kg/day b.w.) and served as standard drug. All groups except group 1 are diabetic. The selected doses (25 and 50 mg/kg/day b.w) were based on prior acute oral toxicity study.
# (§2) After diabetes was confirmed, rats were divided into specific groups which were mentioned in the section of treatment protocol above. Fasting blood glucose (FBG) levels and body weight of rats were measured and it was considered as 0 day. The extracts and standard drug were administered orally on a daily base in single dose for 28 days. At the end of each week, animals were fasted overnight and body weights were recorded using electronic balance. Blood samples were obtained from the tail vein of the rats by Accu-Chek FastClix lancing device and blood glucose levels were analysed using glucose meter (Accu-check, Roche Diagnostics, USA).
# [11] = Body weights in T2D rats; assay type: in vivo, Sprague Dawley (SD) rats; details: 10 mg/kg/day b.w. oral
# Procedure: as §2
# [12] = test system: NA-STZ induced type 2 diabetic (T2D) rats; assay: Liver and renal function markers in T2D rats; assay type: in vivo, Sprague Dawley (SD) rats; details: 10 mg/kg b.w., 4 weeks, serum
# Procedure: as §1
# (§3) The levels of serum total cholesterol (TC), triglycerides (TG), low density lipoprotein cholesterol (LDL-C), and high density lipoprotein cholesterol (HDL-C), total protein, alkaline phosphatase (ALP), alanine aminotransferase (ALT), aspartate aminotransferase (AST), urea, creatinine were analyzed using automatic biochemical analyzer (Beckman-700, Fullerton, CA, USA)
# [13] = test system: NA-STZ induced type 2 diabetic (T2D) rats; assay: Serum lipid profiles in T2D rats; assay type: in vivo, Sprague Dawley (SD) rats; details: 10 mg/kg, 4 weeks
# Procedure: as §1, §3
# [14] = isolated compounds, read-out: Glycogen phosphorylase α IC50
# Chain of α-glucosidase (P53341 whole entry): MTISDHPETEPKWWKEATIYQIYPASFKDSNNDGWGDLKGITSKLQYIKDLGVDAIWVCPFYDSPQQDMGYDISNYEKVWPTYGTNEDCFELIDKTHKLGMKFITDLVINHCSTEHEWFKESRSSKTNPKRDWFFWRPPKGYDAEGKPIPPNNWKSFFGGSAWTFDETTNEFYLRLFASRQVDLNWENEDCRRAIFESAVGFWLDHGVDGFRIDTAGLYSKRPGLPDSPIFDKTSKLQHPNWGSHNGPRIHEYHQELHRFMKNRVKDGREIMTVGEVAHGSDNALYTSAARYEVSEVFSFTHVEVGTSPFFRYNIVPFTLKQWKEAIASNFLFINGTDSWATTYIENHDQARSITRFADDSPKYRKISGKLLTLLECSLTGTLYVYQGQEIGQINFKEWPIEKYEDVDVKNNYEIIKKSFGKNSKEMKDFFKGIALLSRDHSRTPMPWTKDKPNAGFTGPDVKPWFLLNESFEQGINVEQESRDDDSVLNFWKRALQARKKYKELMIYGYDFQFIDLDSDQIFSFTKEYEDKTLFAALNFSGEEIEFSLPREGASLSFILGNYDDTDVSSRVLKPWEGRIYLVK
smiles,measurement,setting,value
"O=c1cc(-c2ccc(O)c(O)c2)oc2cc(O)cc(O)c12 [Compound 5, luteolin]",IC50,[1]; [14],45.08 ± 0.04 µM
same,GP-α inhibitory potency relative to caffeine,[1]; vs caffeine,10 fold
same,α-glucosidase inhibitory potency relative to acarbose,[2]; vs acarbose,5.5 fold
"O=C(O)c1ccc(O)cc1 [Compound 4, Para-hydroxybenzoic acid]",IC50,[1]; [14],357.88 ± 0.07 µM
"CC1=CC(=O)[C@@H](O)[C@]2(C)[C@H]3[C@@H](O)[C@H](O)[C@]4(C)OC[C@@]35[C@@H](C[C@@H]12)OC(=O)[C@H](O)[C@]54O [Compound 2, bruceine D]",blood glucose effect,[3],blood glucose lowering effect
same,blood glucose effect,[4],blood glucose lowering effect
same,GP-α inhibition,[1],no inhibition
same,α-glucosidase inhibition,[2],no inhibition
same,inhibitory activity against α-glucosidase,[2]; at 2.5 mM,14.74%
"O=C(O)c1ccc(O)c(O)c1 [Compound 6, protocatechuic acid]",IC50,[1]; [14],297.37 ± 0.13 µM
"COc1ccc(Cl)cc1C(=O)NCCc1ccc(S(=O)(=O)NC(=O)NC2CCCCC2)cc1 [Glibenclamide, glibenclamide]",decrease of AUC for glucose 0 to 120 min compared to DC group,[5],57.42%
same,OGTT blood glucose reduction at 120 min compared to the values at 30 min,"[5]; day 25, glucose 2 g/kg",29.97%
same,IL-1β,[6],570.67 ± 31.71^b pg/ml
same,IL-6,[6],123.06 ± 10.18^b pg/ml
same,TNF-α,[6],70.10 ± 4.00^b pg/ml
same,reduction of serum MDA level compared to DC group,[7],about 36.45%
same,increase of serum GSH level compared to DC group,[7]; not significant,about 18.94%
same,increase of serum insulin compared to diabetic control group,[8],16.5%
same,LG (liver glycogen),[9],11.55 ± 1.82 mg/g tissue
same,reduction of FBG levels compared to initial day,[10]; 10 mg/kg b.w. once a day for 28 days,45.44%
same,Fasting blood glucose level,[10]; 0 Day,16.90 ± 1.63 mmol/L
same,Fasting blood glucose level,[10]; Day 7,17.63 ± 2.13 mmol/L
same,Fasting blood glucose level,[10]; Day 14,12.97 ± 0.72 mmol/L
same,Fasting blood glucose level,[10]; Day 21,11.83 ± 1.27 mmol/L
same,Fasting blood glucose level,[10]; Day 28,9.22 ± 0.65^a mmol/L
same,Body Weight,[11]; 0 Day,211.00 ± 6.19 g
same,Body Weight,[11]; Day 7,203.50 ± 8.90 g
same,Body Weight,[11]; Day 14,205.83 ± 7.31 g
same,Body Weight,[11]; Day 21,206.00 ± 6.64 g
same,Body Weight,[11]; Day 28,209.33 ± 7.91 g
same,ALP,[12],146.67 ± 10.50 U/L
same,ALT,[12],58.17 ± 4.52 U/L
same,AST,[12],138.83 ± 8.33 U/L
same,Creatinine,[12],29.00 ± 0.93 µmol/L
same,Urea,[12],10.37 ± 1.80 mmol/L
same,Serum HDL,[13],1.31 ± 0.08^a mmol/L
same,Serum LDL,[13],0.59 ± 0.04^a mmol/L
same,Serum TC,[13],1.12 ± 0.05^c mmol/L
same,Serum TG,[13],0.52 ± 0.09^b mmol/L
"O=C(O)c1cc(O)c(O)c(O)c1 [Compound 7, gallic acid]",IC50,[1],214.38 ± 0.12 µM
"COc1cc(C(=O)O)ccc1O [Compound 1, vanillic acid]",GP-α inhibition,[1],no inhibition
same,inhibition at 12000 µM,[1]; at 12 mM,22.9%
same,α-glucosidase inhibition,[2],no inhibition
same,α-glucosidase inhibition,[2]; concentrations tested up to 6 mM,did not inhibit
"CC1=C[C@H](O)[C@@H](O)[C@]2(C)[C@H]3[C@@H](O)[C@H](O)[C@@]4(C)OC[C@@]35[C@@H](C[C@@H]12)OC(=O)[C@H](O)[C@]54O [Compound 3, bruceine E]",blood glucose effect,[3],blood glucose lowering effect
same,blood glucose effect,[4],blood glucose lowering effect
same,GP-α inhibition,[1],no inhibition
same,inhibition at 5000 µM,"[1]; at 5 mM, read-out: inhibitory activity against GP-α",32.7%
same,α-glucosidase inhibition,[2],no inhibition
same,inhibition at 2500 µM,"[2]; at 2.5 mM, read-out: inhibitory activity against α-glucosidase",16.1%
